SMILES strings stand for the structures.

Data set [1] relates to primary human hepatocytes and liver sinusoidal endothelial cells (LSECs). Put plainly: High-content confocal imaging of microfluidic devices seeded with liver cells. The class given is cell-based. Conditions: 10 μM, six hours of exposure. As for the experimental part: Microfluidic devices were obtained from Emulate Inc. (USA) and are illustrated in FIG. 1A. The channels of the microfluidic devices were coated with a proprietary mixture of extracellular matrix and were incubated overnight at 37° C. Primary human cryopreserved hepatocytes sourced from ThermoFisher, as one example, were seeded in the top channel at a density of 3.5×10^6 cells/mL, and were left to form an attached monolayer at 37° C. in a humidified incubator with a 95%/5% ratio of air to CO2.
Twenty-four hours after seeding, the hepatocyte monolayer was overlaid with Matrigel Matrix sourced from Corning, USA. Primary human cryopreserved liver sinusoidal endothelial cells, also known as LSECs, were seeded on the bottom channel of the microfluidic device at a density of 2 to 4×10^6 cells/mL in endothelial medium, also known as CSC medium or Base LSEC Culture Medium; CSC basal Medium plus Culture-Boost (2%), Cell Systems, and Pen/Strep (1%), Sigma. In some embodiments, endothelial cells are cultured in Complete LSEC Culture Medium, Base LSEC Culture Medium plus 10% FBS.
Microfluidic devices were inverted for 2 hours to allow attachment underneath the membrane, and then inverted back before being connected to a platform containing a pneumatic pump source from Emulate Inc. Media was flowed through both channels at a flow rate of 30 μL/hour and was refreshed every other day.
The effects of agents, such as staurosporine on cell phenotype was evaluated. Microfluidic devices were perfused with staurosporine (0 and 10 μM) for 6 hours at a flow rate of 30 μL/hour. A compound was also tested in the microfluidic devices seeded with liver cells. The microfluidic devices seeded with liver cells were perfused with the compound at the concentrations of 0.1 μM, 1 μM or 10 μM for 3 hours, after which the compound was removed from the media flow. The protocol was chosen as it was analogous to how the compound has been evaluated in vivo. […]

For data set [2], the system named is microfluidic devices seeded with human liver cells. Description: Albumin secretion, microfluidic devices seeded with human liver cells. Format: cell-based. The source says: Prior to cell seeding, microfluidic devices, in this case S-1 Chips (Emulate, Inc. Boston, Mass., USA), were functionalized using Emulate's proprietary protocols and reagents (ERT™), including those described herein. After surface functionalization, both channels of the microfluidic device were coated with species-specific extracellular matrices (ECM). For the human bound microfluidic device, a mixture of collagen type I (Corning, Corning, N.Y., USA) and fibronectin, e.g. bovine, (Gibco) was used; for the rat bound microfluidic devices a mixture of collagen type IV, e.g. human placenta, (Sigma-Aldrich, St. Louis, Mo., USA) and fibronectin (Gibco) was used; for the dog bound microfluidic devices a mixture of collagen I (Corning), collagen type IV (Sigma-Aldrich), and fibronectin (Gibco) was used. […] For the dual-cell culture model (hepatocytes and endothelial cells), the LSECs were seeded at a concentration of 2-4 million cells/mL in the lower vascular channel. […] After cell seeding, the upper channel of the microfluidic device was maintained in William's E Medium (WEM) containing Glutamax (Gibco), ITS+(Corning), dexamethasone (Sigma-Aldrich), ascorbic acid (Sigma-Aldrich), fetal bovine serum (FBS) (Sigma-Aldrich), and Penicillin/Streptomycin (Sigma-Aldrich). The vascular channel of the microfluidic device was maintained with species-specific endothelial media (Emulate, Inc.). Two days after seeding, the microfluidic devices were connected to the Human Emulation System™ (Emulate, Inc.), as described in part herein, and both of the microfluidic device channels were perfused at 30 μL/hr to provide a continuous supply of fresh media for the duration of the experiments. Albumin secretion from the upper channel was quantified using ELISA kits for human, rat, and dog models effluent samples (human and rat: Abcam; dog: Immunology Consultants Laboratory, Inc., Portland, Oreg., USA) and the assays were performed according to the protocol provided by each vendor.

Data set [3] shares this test system. Put plainly: APAP metabolite quantification by LC-MS in human chips. Conditions: daily 3 mM for 20 days, flow 10 μL/hr. Format: in vitro ADME. The source says:
After APAP exposure to microfluidic devices seeded with human liver cells, effluent metabolite levels were quantified using LC-MS analysis. […] APAP-Glucuronide (APAP-Glu), the primary metabolite of APAP, was not quantified using a standard curve. Rather, the LC-MS peak area of APAP-Glu was reported corresponding to each sample.

Data set [4] concerns microfluidic devices seeded with dog liver cells. Description: Albumin secretion, microfluidic devices seeded with dog liver cells. Format: cell-based. Conditions: Canis lupus familiaris, 168 h; dual-cell dog chips, daily administration 1-100 μM, 7 days; read-out: IC50, decrease in albumin secretion. The source says:
(§1) Prior to cell seeding, microfluidic devices, in this case S-1 Chips (Emulate, Inc. Boston, Mass., USA), were functionalized using Emulate's proprietary protocols and reagents (ERT™), including those described herein. After surface functionalization, both channels of the microfluidic device were coated with species-specific extracellular matrices (ECM). For the human bound microfluidic device, a mixture of collagen type I (Corning, Corning, N.Y., USA) and fibronectin, e.g. bovine, (Gibco) was used; for the rat bound microfluidic devices a mixture of collagen type IV, e.g. human placenta, (Sigma-Aldrich, St. Louis, Mo., USA) and fibronectin (Gibco) was used; for the dog bound microfluidic devices a mixture of collagen I (Corning), collagen type IV (Sigma-Aldrich), and fibronectin (Gibco) was used. […] For the dual-cell culture model (hepatocytes and endothelial cells), the LSECs were seeded at a concentration of 2-4 million cells/mL in the lower vascular channel. […] Albumin secretion from the upper channel was quantified using ELISA kits for human, rat, and dog models effluent samples (human and rat: Abcam; dog: Immunology Consultants Laboratory, Inc., Portland, Oreg., USA) and the assays were performed according to the protocol provided by each vendor.

For data set [5], the system named is microfluidic devices seeded with rat liver cells. Description: Albumin secretion / hepatocyte function, microfluidic devices seeded with rat liver cells. The class given is cell-based. Conditions: Hepatocyte, 168 h; dual-cell rat chips, daily administration 1-100 μM, 7 days; read-out: IC50, decrease in albumin secretion.
Description: as §1

Data set [6] addresses T1, BSEP (Homo sapiens, UniProt O95342).
T1 construct: Primary rat, dog or human hepatocytes were cultured in the upper parenchymal channel; endogenous in cells; host or cells: primary human hepatocytes in a microfluidic Liver-Chip, co-cultured with LSECs
Put plainly: CLF efflux (BSEP activity) in human hepatocytes on chip. Format: cell-based. Conditions: 30 μM.
Description: Microfluidic devices seeded with liver cells were stained in the upper channel with 5(6)-Carboxy-2′,7′-dichlorofluorescein diacetate (CDFDA) (ThermoFisher) to visualize bile canaliculi and MRP2 activity, cholyl-lysyl-fluorescein (CLF) (Corning) to visualize bile canaliculi and BSEP activity, Nile red (ThermoFisher) or AdipoRed (Lonza) to visualize lipid droplet accumulation, Tetramethylrhodamine, methyl ester (TMRM) (ThermoFisher) to visualize active mitochondria, and CellROX® (ThermoFisher) to visualize cellular oxidative stress. Each staining solution was prepared in blank medium or compound dosing medium and added to the upper channel, incubated for 15 minutes at 37° C., and washed three times with medium. The stained microfluidic devices were imaged using a specific filter, and were de-blurred with Olympus cellSens software. Using ImageJ-Fiji, the fluorescent channel images were histogram adjusted to remove background, followed by fluorescence quantification using the Integrated Density calculation function.
Both a brightfield and a fluorescence image was taken from each field of view. […] These criteria were determined empirically using a small test set of images and then applied to images for the analysis. […] The data for treated and control samples were quantified by computing the area percentage of CLF-labeled bile canaliculi within each field of view (FOV).

The subject of data set [7] is 3D human spheroid hepatic cultures. Conditions: compared with human chip IC50; cited from earlier work.
The conditions of data set [8]: human plasma; cited from earlier work.
Data set [9] is described as follows: Phase I dose-escalating study, clinical chemistry (ALT, AST). Conditions: Phase I clinical trial. The class given is in vivo, human. The method, then: A double-blind, placebo-controlled, randomized, dose-escalating, sequential group design was conducted in 2 Parts. Subjects received daily doses of JNJ-28312141 or placebo for a total of 2 weeks (the first dose on Day 1 and then daily on Days 3 to 14). Part 1 included 5 cohorts of healthy male or female subjects. In Part 2 of the study, 2 cohorts of postmenopausal women (PMW) were enrolled. Within each cohort of 12 subjects, 9 subjects were randomized to JNJ-1, and 3 subjects were randomized to placebo. Dose escalation only occurred after the Sponsor and the Investigator had performed a satisfactory review of the preliminary safety data including those obtained on the post-study follow up visit (anytime between Days 30 to 32), and of the drug concentration and PK data (if available) at the current dose level. In addition to efficacy endpoints, and pharmacokinetics, an assessment of safety included measurement of clinical chemistry parameters, including ALT and AST.

Data set [10] is described as follows: Repeat-dose toxicity study of JNJ-1 in rats. Format: in vivo. Conditions: rat study. The method, then: (§2) JNJ-1, prepared in purified water, was administered once daily for 14 days to 5 male and 5 female rats at doses of 5, 25, and 125 mg/kg. In a separate study, JNJ-1, also in purified water, was administered once daily for 4 weeks to 5 male and 5 female dogs at 0 or 40 mg/kg/day, and to 3 males and 3 female dogs at 2 or 10 mg/kg/day. Mortality, clinical observations, body weight, food consumption, clinical pathology, gross necropsy and microscopic examination of selected tissues, and toxicokinetics were evaluated. Rats or dogs were fasted overnight prior to blood collection for measurement of clinical pathology parameters (including AST and ALT) at the end of 14 days (rats) or 4 weeks (dogs) of dosing. Histology slides (hematoxylin and eosin staining and Mason's Trichrome staining) of the liver tissues were prepared and evaluated microscopically. The quantification of JNJ-1 was conducted using a qualified liquid chromatographic-triple quadrupole mass spectrometric (LC-MS/MS) procedure.

Data set [11] can be described thus: Repeat-dose toxicity study of JNJ-1 in dogs. Format: in vivo. Conditions: dog study. The method, then: as §2
Data set [12] concerns Kupffer cells. Put plainly: Kupffer cell count (CD68-positive cells) in human chips. Format: cell-based. Conditions: human quadruple-cell chips. The method, then: Microfluidic devices seeded with liver cells and static sandwich plate cultures were fixed with 4% paraformaldehyde for 15 minutes at room temperature, washed with PBS, and permeabilized (saponin 1% with 10% serum in PBS). Blocking and incubation with the primary antibodies (overnight in PBS containing 1% BSA or PBS containing 10% serum and 1% BSA) was followed by a two-hour incubation with secondary antibodies (Cell Signaling, Danvers, Mass., USA) in the same blocking buffer. Immunostaining was performed with specific primary antibodies (anti-MRP2, anti-stabilin-1, anti-BSEP, anti-α-SMA, anti-CD68; Abcam, Cambridge, Mass., USA) and images were acquired with either an Olympus fluorescence microscope (IX83) or Zeiss confocal microscope (AxiovertZ1 LSM880).
The number of CD68- or α-SMA-positive cells in the vascular channel in each group was counted in each field of view ([…]) and quantified.

Data set [13] deals with microfluidic devices seeded with human liver cells. Description: Cytokine release (IL-6, MCP-1, IP-10) from the vascular channel of human chips. The class given is cell-based. Conditions: human quadruple-cell chips. The method, then:
Cytokines: Release of IL-6, MCP-1, and IP-10 from the vascular channel was quantified using U-PLEX biomarker human assays (Meso Scale Diagnostics, Rockville, Md., USA) and the assays were performed according to the protocol provided by the vendor.

T1 sequence (O95342 whole entry): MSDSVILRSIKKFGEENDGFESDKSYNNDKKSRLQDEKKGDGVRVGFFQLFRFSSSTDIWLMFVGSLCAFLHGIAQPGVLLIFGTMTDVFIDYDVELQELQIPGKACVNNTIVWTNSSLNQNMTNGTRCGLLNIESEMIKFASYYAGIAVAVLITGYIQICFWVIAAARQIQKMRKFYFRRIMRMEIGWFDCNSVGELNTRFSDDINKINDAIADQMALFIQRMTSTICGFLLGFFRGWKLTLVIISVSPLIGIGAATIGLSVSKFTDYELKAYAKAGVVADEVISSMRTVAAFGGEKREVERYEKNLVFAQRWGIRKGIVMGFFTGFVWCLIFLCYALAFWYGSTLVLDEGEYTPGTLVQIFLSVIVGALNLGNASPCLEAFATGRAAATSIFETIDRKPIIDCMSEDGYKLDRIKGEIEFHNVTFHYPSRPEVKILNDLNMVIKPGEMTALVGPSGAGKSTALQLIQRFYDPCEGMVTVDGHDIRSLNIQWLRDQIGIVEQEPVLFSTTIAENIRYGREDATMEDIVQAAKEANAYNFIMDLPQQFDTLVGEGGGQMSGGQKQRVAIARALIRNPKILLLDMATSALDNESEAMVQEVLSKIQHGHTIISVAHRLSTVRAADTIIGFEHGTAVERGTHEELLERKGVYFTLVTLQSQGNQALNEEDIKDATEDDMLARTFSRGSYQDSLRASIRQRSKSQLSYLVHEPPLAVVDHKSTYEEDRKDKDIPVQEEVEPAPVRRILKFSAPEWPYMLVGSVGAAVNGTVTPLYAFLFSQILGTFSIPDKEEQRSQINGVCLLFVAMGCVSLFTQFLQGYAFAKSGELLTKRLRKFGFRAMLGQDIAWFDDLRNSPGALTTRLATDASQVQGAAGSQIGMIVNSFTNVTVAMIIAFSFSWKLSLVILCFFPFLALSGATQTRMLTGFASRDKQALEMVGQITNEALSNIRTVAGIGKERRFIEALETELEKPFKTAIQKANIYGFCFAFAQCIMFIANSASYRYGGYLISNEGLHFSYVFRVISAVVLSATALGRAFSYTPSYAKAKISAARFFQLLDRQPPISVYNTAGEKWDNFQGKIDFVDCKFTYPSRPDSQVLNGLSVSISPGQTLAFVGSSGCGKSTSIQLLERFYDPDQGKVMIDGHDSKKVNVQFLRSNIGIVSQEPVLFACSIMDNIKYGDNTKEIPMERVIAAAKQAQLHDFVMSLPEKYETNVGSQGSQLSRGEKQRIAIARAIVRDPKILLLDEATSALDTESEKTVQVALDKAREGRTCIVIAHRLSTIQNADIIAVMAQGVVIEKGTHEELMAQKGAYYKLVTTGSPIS

As for `CN[C@@H]1C[C@H]2O[C@@](C)([C@@H]1OC)n1c3ccccc3c3c4c(c5c6ccccc6n2c5c31)C(=O)NC4` [staurosporine], in data set [1], the “LSECs (cell number)” value was “complete loss of LSECs”, the “apoptotic marker (CC3)” value was “marked increases” and the hepatocyte cell number entry is reported as “little if any effect”.
For the compound `CC(=O)Nc1ccc(O)cc1` [APAP, acetaminophen], the “albumin synthesis / secretion” value in data set [2] (quadruple-cell human chips, 7 days) is listed as “decreased”. For the same compound, in data set [3], the “APAP glucuronide in parenchymal and vascular channels” value was “significant amounts”.
The IC50 is the concentration needed to halve the response being measured. On to `COc1ccccc1Oc1c(NS(=O)(=O)c2ccc(C(C)(C)C)cc2)nc(-c2ncccn2)nc1OCCO` [bosentan], for which the IC50 in [2] (72 h, dual-cell human chips, daily administration 1-100 μM, 3 days, read-out: IC50, decrease in albumin secretion) is 10 µM; in data set [4], 30 µM; in data set [5], greater than 100 µM. For the same compound, the “intracellular accumulation of CLF” value in data set [6] is recorded as “intracellular accumulation”. In addition, the “reduction in CLF efflux” value in [6] (co-treatment with CLF) is given as greater than 50%. Moreover, the “IC50 in 3D human spheroid hepatic cultures relative to human chip” value in data set [7] is on record as “more than 10 fold higher”. Moreover, in data set [8], the “plasma concentration (Cmax) associated with DILI in humans” value was 7.4 µM.
On to `CN(C)CC(=O)N1CCC(c2ccc(NC(=O)c3nc(C#N)c[nH]3)c(C3=CCCCC3)c2)CC1` [JNJ compound], for which, in [9], the “healthy subjects with elevation of alanine aminotransferase (ALT)” value is reported as 3/12 and the “healthy subjects with elevation of aspartate aminotransferase (AST)” value is 7/12. Also, in data set [10], the “microscopic changes in the liver” value is on record as “without any correlative microscopic changes” and the transaminases entry is reported as “Dose-related elevation”. For the same compound, in data set [11], the “microscopic changes in the liver” value is “without any correlative microscopic changes” and the transaminases entry was “Dose-related elevation”. Besides, the “Kupffer cells (CD68-positive cells)” value in [12] was “decreased number”. For the same compound, in [13], the “interleukin 6 (IL-6) in the vascular channel” value was “dose-dependent decrease” and the “monocyte chemoattractant protein-1 (MCP-1) in the vascular channel” value is given as “dose-dependent decrease”.

(Values after US20210340572A1, “HIGH-CONTENT IMAGING OF MICROFLUIDIC DEVICES” (EMULATE, Inc., priority 2019, published 2021).)
